Consider two molecules from patent publication US11980594B2, “Composition and method for treating a drug-resistant cancer” (NOVELWISE PHARMACEUTICAL CORPORATION, priority 2021, dated 2024).

One assay deals with HT29 cells. The experiment in a line: CRC cell proliferation assay (CCK8), HT29. The assay is classed as cell-based. Conditions: Homo sapiens. How it is done: Three CRC cell lines HT29, HCT116 and RKO were used in this study. The American Type Culture Collection (ATCC; Manassas, Va., USA) provided human CRC cell lines HT29 (ATCC HTB-38; mutant TP53, p.R273H; APC frame shift, p. E1554fs; wild type β-catenin), HCT116 (ATCC CCL-247; wild type TP53; wild type APC; deletion β-catenin, p. S45del) and RKO (ATCC CRL-2577; wild type TP53; wild type APC; wild type β-catenin). Three CRC cells lines as listed above were cultured in adherent culture condition, maintained at 37° C. inside the cell incubation containing 5% CO2. The two cell lines of HCT-116 and HT-29 cells were cultured in McCoy's 5A medium with supplemented 10% fetal bovine serum (Gibco; Thermo Fischer Scientific, Grand Island, N.Y., USA)), 1% penicillin and 1% streptomycin. RKO cell was cultured in MEM medium with supplemented 10% FBS, 1% penicillin, 1% streptomycin and 1% sodium pyruvate. The cell cultures were passaged by trypsinization every three days. BM-BMX (BMX), (E)-2-(4-Methoxybenzyloxy)-3-prenyl-4-methoxy-N-hydroxycinamide, was provided by Nature Wise Biotech & Medicals Corporation (Taipei, Taiwan).
We plated 4000 CRC cells per well in 96-well plates and allowed them to adhere overnight. To validate cell line responsiveness to BMX and TMZ monotherapy, the cells were treated with different doses of BMX or TMZ for 24, 48, and 72 hrs. To confirm cell responsiveness to the BMX-TMZ combination, cells were either treated with different doses of TMZ ([…]) with or without BMX (5 μM) for 24, 48, and 72 hrs or with different doses of BMX (0-10 μM) with or without TMZ (50 μM) for 24, 48, and 72 hrs. Following treatment, the absorption value was measured using a CCK8 kit (Targetmol, Shanghai, China) at the indicated time points. The results are reported as the mean±standard deviation of at least three replicates.

The next assay relates to HCT116 cells. The assay can be described thus: Annexin V/PI flow cytometric analysis of apoptosis, HCT116. The assay is classed as cell-based, human. The settings on record: BMX, 48 hrs. How it is done:
(§1) Apoptosis induction in different doses of BMX (0-10 μM) in the presence or absence of TMZ (50 μM) was assayed by the detection of membrane externalization of phosphatidylserine with the with the CF®488A Annexin V and PI Apoptosis Kit (Fremont, Calif., USA) following the manufacturer's instructions. All samples were then immediately analyzed by flow cytometry.
In general terms: Flow cytometry measures light scatter and fluorescence of single cells or particles in a stream.

For another assay, the system named is RKO cells. The assay can be described thus: Annexin V/PI flow cytometric analysis of apoptosis, RKO. The assay is classed as cell-based, human. The settings on record: BMX, 48 hrs. How it is done:
as §1

The subject of assay [1] is HDAC8. The experiment in a line: HDAC8 mRNA (qRT-PCR) and protein (Western blot) expression in GBM and GBM-R cell lines. The assay is classed as cell-based, human. Conditions: four cell lines (U87MG, U87MG-R, A172, A172-R); BMX 0-10 μM; FIGS. 9A and 9B. The method, then:
The ABI Prism® 7700 Sequence Detection System (Applied Biosystems, Foster City, Calif., USA) was used for quantitative analysis of mRNA expression. The cells (2×10^5) were seeded in 6-well plates, and total RNA was extracted using Tissue Total RNA Mini Kit (Geneaid, Taipei, Taiwan). A 10-ng sample of total RNA was transcribed into cDNA by using a High-Capacity cDNA Reverse Transcription Kit (Applied Biosystems). Gene expression was quantified using Fast SYBR Green Master Mix (Applied Biosystems) following the procedures provided by the manufacturer, with 18s as the inner reference. All procedures were performed according to the manufacturer's protocols. The thermocycling conditions were as follows: 50° C. for 2 min, 95° C. for 10 min, and 40 cycles of 95° C. for 15 s and 60° C. for […]. Each sample was analyzed in triplicate. The threshold cycle (Ct) values were calculated using the StepOnePlus (Applied Biosystems) software. The relative expression of each mRNA was calculated using the 2-(ΔCt) method. […]
The cells were collected and lysed in RIPA lysis buffer (EMD Millipore Billerica, Mass., USA, 10×RIPA buffer) containing a protease inhibitor. Protein concentration was determined using a protein assay kit (Bio-Rad Laboratories, Hercules, Calif., USA). […] After washing thoroughly with TBS-T, the HRP signals were detected with a chemical HRP substrate. […]
In general terms: Real-time PCR tracks product formation cycle by cycle.

For the next assay, the system named is β-catenin. The assay can be described thus: Western blot of β-catenin in GBM-R cells. The assay is classed as cell-based, human. The settings on record: U87R and A172R cells; 10 μM BMX with or without 50 μM TMZ; 48 hrs; FIG. 3A. The method, then:
(§2) The cells were collected and lysed in RIPA lysis buffer (EMD Millipore Billerica, Mass., USA, 10×RIPA buffer) containing a protease inhibitor. Protein concentration was determined using a protein assay kit (Bio-Rad Laboratories, Hercules, Calif., USA). The SDS loading buffer was mixed with the protein samples. Proteins (20 μg/lane) were separated using 8%-12% SDS-PAGE and transferred to a PVDF membrane, which was blocked with 5% bovine serum albumin at room temperature for 1 hr in tris-buffered saline (TBS)-Tween 20 (0.5%; TBS-T), incubated with primary antibodies overnight at […], and then incubated with horseradish peroxidase (HRP)-conjugated secondary antibodies at room temperature for 1 hr. After washing thoroughly with TBS-T, the HRP signals were detected with a chemical HRP substrate. Signal of each target protein was visualized by incubation with an enhanced chemiluminescent reagent and exposure to X-ray film.
(In general: Immunoblotting shows a protein as a band on a membrane.)

In a further assay the test system is c-Myc and cyclin D1. The assay can be described thus: Western blot of c-Myc and cyclin D1 in GBM-R cells. The assay is classed as cell-based, human. The settings on record: 5 or 10 μM BMX with or without 50 μM TMZ, 48 hrs, FIG. 3B. How it is done:
as §2

The target of assay [2] is T1, HDAC8 (Homo sapiens, UniProt Q9BY41).
T1 sequence (Q9BY41 1-377): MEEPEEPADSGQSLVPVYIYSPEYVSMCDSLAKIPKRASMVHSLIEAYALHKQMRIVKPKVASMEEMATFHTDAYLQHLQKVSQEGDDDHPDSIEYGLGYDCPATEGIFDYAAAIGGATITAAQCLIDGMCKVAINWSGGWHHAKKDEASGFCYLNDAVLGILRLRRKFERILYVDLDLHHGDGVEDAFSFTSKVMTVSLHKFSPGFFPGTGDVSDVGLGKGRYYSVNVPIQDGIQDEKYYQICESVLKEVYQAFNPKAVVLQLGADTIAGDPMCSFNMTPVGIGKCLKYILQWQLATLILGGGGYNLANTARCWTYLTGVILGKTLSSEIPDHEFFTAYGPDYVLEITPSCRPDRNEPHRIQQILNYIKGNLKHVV
Conditions: statement from literature [22]; cited from earlier work.

Like-named read-outs stand apart in the source and are kept apart here.

As a reminder, the IC50 is the concentration that inhibits the measured activity by half. `COc1ccc(COc2c(/C=C/C(=O)NO)ccc(OC)c2CC=C(C)C)cc1` [BMX, (E)-2-(4-Methoxybenzyloxy)-3-prenyl-4-methoxy-N-hydroxycinamide]: the concentration for half-maximal inhibition (IC50) with HT29 cells (HT-29, 24 h, BMX alone, 24 hrs, read-out: IC50 of BMX) is 42.6 ± 2.4 µM; in the assay on HT29 cells (HT-29, 24 h, TMZ 50 μM combined with different concentrations of BMX, 24 hrs, read-out: IC50 of BMZ), > 10 µM; with HT29 cells (HT-29, 48 h, BMX alone, 48 hrs, read-out: IC50 of BMX) it was 9.9 ± 0.5 µM; with HT29 cells (HT-29, 48 h, TMZ 50 μM combined with different concentrations of BMX, 48 hrs, read-out: IC50 of BMZ), 9.1 ± 0.2 µM; in the assay with HT29 cells (HT-29, 72 h, BMX alone, 72 hrs, read-out: IC50 of BMX), 2.9 ± 0.2 µM; in the assay with HT29 cells (HT-29, 72 h, TMZ 50 μM combined with different concentrations of BMX, 72 hrs, read-out: IC50 of BMZ) it was 2.2 ± 0.1 µM. In addition, the early apoptotic cells in the assay on HCT116 cells is ≤ 49.34%; in the assay on RKO cells it was ≤ 59.18%. Moreover, in the assay on HDAC8 [1], the “HDAC8 mRNA and protein expression” value was “inhibition of HDAC8 mRNA and protein expression”. Further, the “protein levels of β-catenin” value in the assay on β-catenin was “only slightly reduced these levels”. Besides, the “levels of proliferative markers c-Myc and cyclin D1” value in the assay on c-Myc and cyclin D1 was “could decrease their levels”. The HDAC isoform selectivity result on HDAC8 [2] was “isoform-selective HDAC8 inhibitor”.
As for `Cn1nnc2c(C(N)=O)ncn2c1=O` [TMZ, Temozolomide, reference compound], the IC50 with HT29 cells (HT-29, 24 h, BMX 5 μM combined with different doses of TMZ, 24 hrs, read-out: IC50 of TMZ) is > 400 µM; with HT29 cells (HT-29, 24 h, TMZ alone, 24 hrs, read-out: IC50 of TMZ), > 1000 µM; in the assay on HT29 cells (HT-29, 48 h, BMX 5 μM combined with different doses of TMZ, 48 hrs, read-out: IC50 of TMZ) it was 128 ± 18.3 µM; in the assay with HT29 cells (HT-29, 48 h, TMZ alone, 48 hrs, read-out: IC50 of TMZ), 931 ± 47.7 µM; with HT29 cells (HT-29, 72 h, TMZ alone, 72 hrs, read-out: IC50 of TMZ) it was 258 ± 20.5 µM.
